In US20230256007A1 (priority 2022, published 2023):

Key:
[1] = system: patient with sequelae of infection with the delta variant of coronavirus; conditions: Case 1
From the text: Although the patient was cured after home care, their activity level was lower than that of a healthy person. Fatigue, pain, and decrease in thinking power progressed extremely, and the level of daily life decreased below the level of a healthy person, so they underwent a medical examination at the hospital. The diagnosis based on the physician’s diagnostic criteria was as follows. • (i) Fatigue - persistent, fatigue so pronounced that the activity level is severely impaired: severity 3 (severe) • (ii) Feeling of fatigue after exertion - loss of physical and mental endurance, fatigue aggravated by physical exertion: severity 3 (severe) • (iii) Long recovery time from exertion - it takes 24 hours or more to recover to pre-exertion activity level: severity 2 (moderate) • (iv) Pain - muscle pain, joint pain, headache: severity 2 (moderate) • (v) Sleeping disorder - nonrestorative sleep, insomnia, hypersomnia: severity 2 (moderate) • (vi) Confusion and loss of concentration: severity 2 (moderate) • (vii) Memory impairment - short-term memory is impaired: severity 1 (mild) • (viii) Shortness of breath associated with exertion: severity 2 (moderate) • (ix) Gastrointestinal disorder - diarrhea, irritable bowel syndrome: severity 1 (mild) • (x) Repeated sore throat: severity 1 (mild) • (xi) Dizziness when standing up or fragility: severity 1 (mild) • (xii) Heat/cold intolerance: severity 1 (mild) • (xiii) Body temperature changes, irregular body temperature, cold hands and feet: severity 1 (mild)

[2] = system: patient with sequelae of influenza virus type A infection; conditions: Case 3
[3] = after 4 weeks of inhalation, before inhalation severity 2: moderate
[4] = around 3 weeks after inhalation

## [HH] [hydrogen gas, hydrogen]
[1]
  Effect on chronic fatigue, pain, and brain fog (summary): clearly effective
[1]; after 2 weeks of inhalation
  Feeling on inhalation (sympathetic nerves high before inhalation): felt relaxed and drowsy
  Foggy head / brain fog: their head appeared clear and refreshed
  Frequency of headache and generalized pain: seemed to decrease
  Number of doses of analgesics: decreased
[1]; after 4 weeks of inhalation
  Bedridden chronic severe fatigue (patient's impression): significantly alleviated
  Cognitive ability (patient's impression): regained some of their writing and summarizing skills
  Foggy feeling in the brain (patient's impression): alleviated
  Number of doses of analgesics relative to that before hydrogen inhalation: ¼
  Other symptoms (not significantly recovered): did not worsen
  Sleeping disorder: same strong symptoms as before
[1]; [3]
  Long recovery time from exertion: severity after inhalation (physician's diagnosis): severity 1: mild
  Loss of concentration: severity after inhalation (physician's diagnosis): severity 1: mild
  Pain, headache: severity after inhalation (physician's diagnosis): severity 1: mild
  Repeated sore throat: severity after inhalation (physician's diagnosis): severity 1: mild
[1]; after 4 weeks of inhalation, before inhalation severity 3: severe
  Fatigue - persistent, activity level severely impaired: severity after inhalation (physician's diagnosis): severity 1: mild, or severity 2: moderate
[1]; after 4 weeks of inhalation, still falls asleep 2 or 3 days a week
  Days on which they feel better like a healthy person: more than half the days of the week
[1]; inhalation for about 90 minutes every day
  Pain due to training, the next day: almost eliminated the pain the next day
[1]; inhaling hydrogen for about 90 minutes
  Falling asleep 1 to 2 hours after exertion (sudden intense fatigue): can avoid falling asleep
[1]; since the start of inhalation, once or twice a week before
  Frequency of headache (patient's impression): decreased significantly, and headache has almost disappeared
[1]; two weeks after starting inhalation
  Muscle pain and joint pain after training: began to be greatly alleviated
[2]; after 8 weeks
  Number of days without naps: increased
[2]; after 8 weeks, although there was malaise
  Amount of time for physical activity: increased
[2]; [4]
  Bowel movements and decreased motivation: improvement
  Nap time: decreased
[2]; around 3 weeks after inhalation, about 4% to 5% hydrogen, 5 hours per day
  General feeling: felt a little lighter
